One test deals with T1, GCN2 kinase (Homo sapiens, UniProt Q9P2K8).
T1 construct: G556E with a; purchased Carna Biosciences
In words: Biochemical assay for GCN2 (TR-FRET kinase activity assay). The settings on record: 2 nM GCN2, 1 mM ATP, 3-hour incubation. On the procedure:
Biochemical assay for GCN2
Activity of GCN2 kinase was determined using a TR-FRET kinase activity assay (e.g., Analytical Biochemistry, 2006, 356, 108-116). Assays were conducted in 384-well plates (13 μL assay volume) using 2 nM GCN2 (Carna Biosciences), 130 nM GFP-EIf2α (Invitrogen), 0.2 mg/mL E. coli tRNA (sigma) and 1 mM ATP in kinase buffer (Invitrogen). Inhibition of GCN2 was measured by adding serial diluted test compound (final assay concentration of 0.5% DMSO) followed by a 3-hour incubation. Tb-peIF2α (pSer52) antibody (Invitrogen) (2 nM final assay concentration) in kinase buffer containing EDTA (final assay concentration of 20 mM) was added. After a 60 min incubation at room temperature, TR-FRET was monitored using an excitation wavelength of 340 nm and emission wavelengths of 490 nm and 520 nm. The emission ratio (520/490) at each compound concentration of was converted to percent inhibition using controls (i.e., reaction with no test compound and reaction with a known inhibitor) and IC50 values were calculated by fitting a four-parameter sigmoidal curve to the data using Prism (GraphPad software).

Test [1] relates to ATF4 in Thapsigargin stimulated CCRF-CEM cells. In words: CCRF-CEM TG ATF4 ELISA, phenotypic assay for cellular inhibition of PERK preactivated by thapsigargin. It counts as cell-based. The conditions noted are these: Homo sapiens, 3 h, compound three hours then 1 μM thapsigargin for an additional hour. The protocol:
CCRF-CEM TG ATF4 ELISA, a Phenotypic Assay for Cellular Inhibition of PERK Preactivated by Thapsigargin (TG)
CCRF-CEM leukemia cells (catalog #CCL-116) were obtained from the American Type Culture Collection (ATTC, Manassas, VA). Briefly, cells were grown in RPMI-1640 medium supplemented with 10% heat-inactivated fetal bovine serum (Invitrogen, Carlsbad, CA) and 1% Penicillin/Streptomycin/L-Glutamine at 37° C., 5% CO2, and 95% humidity. Cells were expanded until reaching one million cells per mL at which time they were subcultured or harvested for assay use. One million five hundred thousand cells per well in 1 mL complete growth medium were dispensed into 12-well plates and incubated overnight. A serial dilution of test compound was added and cells were incubated at 37° C., 5% CO2, and 95% for three hours, then 1 μM thapsigargin was added and cells were incubated for an additional hour at 37° C., 5% CO2, and 95%. Cells were lysed then ATF4 levels were measured using an ELISA assay (Proteintech, Rosemont, IL). Absorbance was measured at 450 nm and 544 nM using a Synergy2 or equivalent reader (Biotek, Winooski VT). Data was analyzed using PRISM software (Graphpad, San Diego, CA) to calculate IC50 values.
For orientation: An ELISA detects its analyte on a solid surface through an enzyme-linked reagent.

The next test has as its target T2, PERK kinase (Homo sapiens, UniProt Q9NZJ5, A704S).
T2 construct: GST (with thrombin site LVPRGS); purchased Beryllium
In words: Biochemical assay for PERK (coupled pyruvate kinase/lactate dehydrogenase assay). The settings on record: 10 nM PERK, 1 mM ATP, reaction rate 2-3 h time frame, 30° C. The protocol:
Biochemical Assay for PERK
Activity of PERK kinase was determined spectroscopically using a coupled pyruvate kinase/lactate dehydrogenase assay that continuously monitors the ATP hydrolysis-dependent oxidation of NADH (Science, 2000, 289, 1938-1942). Assays were conducted in 384-well plates (100 μL final volume) using 10 nM PERK (from Beryllium), 0.25 mg/mL Myelin Basic Protein substrate, 1.5 units pyruvate kinase, 2.1 units lactate dehydrogenase, 1 mM phosphoenol pyruvate, 0.28 mM NADH and 1 mM ATP in assay buffer (100 mM Tris, pH 7.5, 15 mM MgCl2, 0.5 mM DTT, 0.004% (w/v) BSA, and 0.004% Triton X-100). Inhibition of PERK was measured by adding serial diluted test compound (final assay concentration of 1% DMSO). A decrease in absorption at 340 nm was monitored continuously for 6 hours at 30° C. on a multi-mode microplate reader (BioTek). The reaction rate was calculated using the 2-3 h time frame. The reaction rate at each concentration of compound was converted to percent inhibition using controls (i.e., reaction with no test compound and reaction with a known inhibitor) and IC50 values were calculated using software routines in Prism (GraphPad software).

The subject of test [2] is ATF4 in H929 Multiple Myeloma cells. In words: H929 ATF4 ELISA assay. The class given is cell-based. The conditions noted are these: four hours, fold stimulation of cellular ATF4 relative to vehicle treated control. The protocol:
H929 multiple myeloma cells (catalog #CRL-9068) were obtained from the American Type Culture Collection (ATTC, Manassas, VA). Briefly, cells were grown in RPMI-1640 medium supplemented with 20% heat-inactivated fetal bovine serum (catalog #A3840002, ThermoFisher Scientific, Waltham, MA), 1% Penicillin/Streptomycin/L-Glutamine (catalog #10378016, ThermoFisher Scientific, Waltham, MA), and 0.05 mM 2-mercaptoethanol (catalog #21985-023, ThermoFisher Scientific, Waltham, MA) at 37° C., 5% CO2, and 95% humidity. Cells were expanded until reaching one million five hundred thousand cells per mL at which time they were sub-cultured or harvested for assay use. One million five hundred thousand cells per well in 1 mL complete growth medium were dispensed into 12-well plates and incubated overnight. A serial dilution of test compound was added, and cells were incubated at 37° C., 5% CO2, and 95% for four hours. Cells were lysed then ATF4 levels were measured using an ELISA assay (Proteintech, Rosemont, IL). Absorbance is measured at 450 nm and 544 nM using a Synergy2 or equivalent reader (Biotek, Winooski VT). Data were analyzed using PRISM software (Graphpad, San Diego, CA) to calculate fold stimulation of cellular ATF4 relative to vehicle treated control.

The test system of test [3] is ASNase treated CCRF-CEM cells. Briefly: CCRF-CEM ASNase cell proliferation assay, phenotypic assay for cellular inhibition of GCN2. The conditions noted are these: Homo sapiens, 1 mU/mL ASNase, 72 h, resazurin. The class given is cell-based. The protocol:
CCRF-CEM ASNase Cell Proliferation Assay, a Phenotypic Assay for Cellular Inhibition of GCN2.
CCRF-CEM leukemia cells (catalog #CCL-116) were obtained from the American Type Culture Collect (ATTC, Manassas, VA). Cells were grown in RPMI-1640 medium supplemented with 10% heat-inactivated fetal bovine serum (Invitrogen, Carlsbad, CA) and 1% Penicillin/Streptomycin/L-Glutamine at 37° C., 5% CO2, and 95% humidity. Cells were expanded until reaching one million cells per mL at which time they are subcultured or harvested for assay use. Ten thousand cells per well in 200 μL RPMI-1640 supplemented with 10% heat-inactivated fetal bovine serum and 1% Penicillin/Streptomycin were dispensed into a 96-well black clear bottom plate. A serial dilution of test compound and 1 mU/mL ASNase was added in triplicate and plates were incubated for 72 h at 37° C., 5% CO2, and 95% humidity. At the end of the incubation, 40 μL of a […] solution of resazurin (Sigma, St. Louis, MO) in PBS was added to each well of the plate and plates were incubated for an additional 6 h at 37° C., 5% CO2, and 95% humidity. Plates were read on a Synergy2 or equivalent reader (Biotek, Winooski VT) using an excitation of 540 nm and an emission of 600 nm. Data was analyzed using GraphPad Prism software (GraphPad, San Diego, CA) to calculate IC50 values.

The structures appear in SMILES notation.

T2 sequence (Q9NZJ5 with tags, fused parts or gaps A704S): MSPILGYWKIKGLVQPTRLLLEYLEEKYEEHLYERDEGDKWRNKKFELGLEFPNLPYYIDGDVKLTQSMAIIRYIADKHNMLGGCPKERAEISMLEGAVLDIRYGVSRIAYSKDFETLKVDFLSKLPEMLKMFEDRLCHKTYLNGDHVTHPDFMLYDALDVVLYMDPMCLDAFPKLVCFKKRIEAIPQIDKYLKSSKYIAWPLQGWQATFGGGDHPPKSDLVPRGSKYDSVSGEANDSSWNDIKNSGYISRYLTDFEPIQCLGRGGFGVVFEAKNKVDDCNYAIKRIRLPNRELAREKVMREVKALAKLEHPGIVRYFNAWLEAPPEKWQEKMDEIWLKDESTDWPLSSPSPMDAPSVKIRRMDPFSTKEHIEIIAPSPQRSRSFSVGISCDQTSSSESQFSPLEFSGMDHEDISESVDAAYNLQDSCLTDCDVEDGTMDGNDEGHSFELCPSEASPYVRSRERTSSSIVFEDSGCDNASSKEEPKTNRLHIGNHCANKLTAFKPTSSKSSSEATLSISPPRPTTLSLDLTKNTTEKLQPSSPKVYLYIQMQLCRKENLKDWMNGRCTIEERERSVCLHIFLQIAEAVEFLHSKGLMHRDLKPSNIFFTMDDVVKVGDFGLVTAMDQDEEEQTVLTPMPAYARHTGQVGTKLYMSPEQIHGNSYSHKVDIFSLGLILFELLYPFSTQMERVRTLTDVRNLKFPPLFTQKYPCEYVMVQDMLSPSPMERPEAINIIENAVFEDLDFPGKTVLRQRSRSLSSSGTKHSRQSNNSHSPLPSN

A word on the IC50: it is the concentration at which inhibition is half-maximal. Take `CC(=O)OCc1cc(Cl)cc(S(=O)(=O)Nc2cccc(-c3nc(C)n4ccnc(N)c34)c2F)c1Cl` [Example 1, 3-(N-(3-(8-amino-3-methylimidazo[1,5-a]pyrazin-1-yl)-2-fluorophenyl)sulfamoyl)-2,5-dichlorobenzyl acetate]: the 50% inhibitory concentration (IC50) lay in the range of 1 to 10 µM at GCN2 kinase, 0.5 to 1 µM in test [1], 0.1 to 0.5 µM against PERK kinase and 0.5 to 1 µM in test [3]. Moreover, the “H929 NS ATF4 ELISA” value in test [2] was “++++ (an ATF4 stim greater than 20-fold)”.

Regarding `Cc1nc(-c2cccc(NS(=O)(=O)c3cc(Cl)cc(CO)c3Cl)c2F)c2c(N)nccn12` [Example 2, N-(3-(8-amino-3-methylimidazo[1,5-a]pyrazin-1-yl)-2-fluorophenyl)-2,5-dichloro-3-(hydroxymethyl)benzenesulfonamide], the half-inhibitory concentration (IC50) on GCN2 kinase is 0.1 to 0.5 µM; in test [1] it was 0.1 to 0.5 µM; on PERK kinase it was no more than 0.1 µM; in test [3], 0.1 to 0.5 µM. Moreover, in test [2], the “H929 NS ATF4 ELISA” value was “+++ (an ATF4 stim greater than 10-fold and less than or equal to 20-fold)”.

With `Nc1ncnn2ccc(-c3cccc(NS(=O)(=O)c4cc(Cl)cc(CO)c4Cl)c3F)c12` [Example 3], the half-maximal inhibitory concentration (IC50) against GCN2 kinase is 0.1 to 0.5 µM; in test [1], 0.1 to 0.5 µM; against PERK kinase it was no more than 0.1 µM; in test [3], 0.1 to 0.5 µM. In test [2], the “H929 NS ATF4 ELISA” value was “++ (an ATF4 stim greater than 5-fold and less than or equal to 10-fold)”.

As to `Cc1nc(-c2cc(NS(=O)(=O)c3cc(Cl)cc(CO)c3Cl)cc(F)c2F)c2c(N)nccn12` [Example 4], the IC50 is no more than 0.1 µM against GCN2 kinase, 1 to 10 µM in test [1], no more than 0.1 µM against PERK kinase and 1 to 10 µM in test [3]. Moreover, the “H929 NS ATF4 ELISA” value in test [2] is listed as “+ (an ATF4 stim less than or equal to 5-fold)”.

For `CC(C)(C)c1nc(-c2cccc(NS(=O)(=O)c3cc(Cl)cc(CO)c3Cl)c2F)c2c(N)nccn12` [Example 9], the IC50 is 0.1 to 0.5 µM on GCN2 kinase, 0.1 to 0.5 µM in test [1], no more than 0.1 µM on PERK kinase and 0.1 to 0.5 µM in test [3]. In addition, the “H929 NS ATF4 ELISA” value in test [2] is “+++ (an ATF4 stim greater than 10-fold and less than or equal to 20-fold)”.

Consider `Nc1nccn2c(-c3ccccc3)nc(-c3cccc(NS(=O)(=O)c4cc(Cl)cc(CO)c4Cl)c3F)c12` [Example 12], for which the IC50 was no more than 0.1 µM against GCN2 kinase, 0.5 to 1 µM in test [1], no more than 0.1 µM against PERK kinase and 0.1 to 0.5 µM in test [3]. Also, the “H929 NS ATF4 ELISA” value in test [2] is “++++ (an ATF4 stim greater than 20-fold)”.

As for `Cc1cc(-c2cccc(NS(=O)(=O)c3cc(Cl)cc(CO)c3Cl)c2F)c2c(N)ncnn12` [Example 13], the IC50 is 0.1 to 0.5 µM at GCN2 kinase, 0.1 to 0.5 µM in test [1], no more than 0.1 µM on PERK kinase and 0.1 to 0.5 µM in test [3]. Further, the “H929 NS ATF4 ELISA” value in test [2] was “+++ (an ATF4 stim greater than 10-fold and less than or equal to 20-fold)”.

`Nc1nccn2c(C3CC3)nc(-c3cccc(NS(=O)(=O)c4cc(Cl)cc(CO)c4Cl)c3F)c12` [Example 14]: the IC50 on GCN2 kinase is no more than 0.1 µM; in test [1], 0.1 to 0.5 µM; at PERK kinase, no more than 0.1 µM; in test [3] it was no more than 0.1 µM. Also, the “H929 NS ATF4 ELISA” value in test [2] was “++ (an ATF4 stim greater than 5-fold and less than or equal to 10-fold)”.

On to `CC(C)c1nc(-c2cccc(NS(=O)(=O)c3cc(Cl)cc(CO)c3Cl)c2F)c2c(N)nccn12` [Example 16], for which the IC50 is no more than 0.1 µM against GCN2 kinase, 0.1 to 0.5 µM in test [1], no more than 0.1 µM against PERK kinase and no more than 0.1 µM in test [3]. Further, the “H929 NS ATF4 ELISA” value in test [2] was “+++ (an ATF4 stim greater than 10-fold and less than or equal to 20-fold)”.

As to `COc1ncc(Cl)cc1S(=O)(=O)Nc1cccc(-c2cn(C)c3ncnc(N)c23)c1F` [Example 45, N-(3-(4-amino-7-methyl-7H-pyrrolo[2,3-d]pyrimidin-5-yl)-2-fluorophenyl)-5-chloro-2-methoxypyridine-3-sulfonamide], the IC50 is 1 to 10 µM against GCN2 kinase, 0.1 to 0.5 µM in test [1], no more than 0.1 µM at PERK kinase and 1 to 10 µM in test [3].

`COCc1cc(Cl)cc(S(=O)(=O)Nc2cccc(-c3nc(C)n4ccnc(N)c34)c2F)c1Cl` [Example 48, N-(3-(8-amino-3-methylimidazo[1,5-a]pyrazin-1-yl)-2-fluorophenyl)-2,5-dichloro-3-(methoxymethyl)benzenesulfonamide]: the IC50 at GCN2 kinase was 0.5 to 1 µM; in test [1], 1 to 10 µM; on PERK kinase it was no more than 0.1 µM; in test [3], 1 to 10 µM.

For the compound `Cn1cc(-c2cccc(NS(=O)(=O)c3cc(Cl)cc(CN)c3Cl)c2F)c2c(N)ncnc21` [Example 49], the IC50 against GCN2 kinase fell in the range of 1 to 10 µM; in test [1] it was 0.5 to 1 µM; on PERK kinase it was 0.1 to 0.5 µM; in test [3], 1 to 10 µM.

In the case of `CNCc1cc(Cl)cc(S(=O)(=O)Nc2cccc(-c3cn(C)c4ncnc(N)c34)c2F)c1Cl` [Example 50], the 50% inhibitory concentration (IC50) at GCN2 kinase is 1 to 10 µM; in test [1], 1 to 10 µM; against PERK kinase it was 0.5 to 1 µM; in test [3], 1 to 10 µM.

As for `CO/N=C\c1cc(Cl)cc(S(=O)(=O)Nc2cccc(-c3cn(C)c4ncnc(N)c34)c2F)c1Cl` [Example 53], the IC50 on GCN2 kinase is 1 to 10 µM; in test [1], 1 to 10 µM; at PERK kinase, no more than 0.1 µM; in test [3], 1 to 10 µM.

The values are drawn from patent publication US20260226069A1, “GCN2 AND PERK KINASE MODULATORS AND METHODS OF USE THEREOF” (Deciphera Pharmaceuticals, LLC, priority 2023, published 2026).
